Measured values: patent publication US20230123334A1, “AMINO LIPID COMPOUND, PREPARATION METHOD THEREFOR, AND APPLICATION THEREOF” (SHENZHEN SHENXIN BIOTECHNOLOGY CO., LTD., priority 2020, published 2023)

Tested on: HEK293 cells
Assay: Preliminary screening as mRNA vectors, EGFP mRNA transfection of HEK293 cells
Assay type: cell-based
Conditions: EGFP mRNA 50 ng per well, 96-well plates; percentage of GFP fluorescent cells relative to total number of cells (Hoechst)
In short: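 Each well of HEK293 cells received 50 ng of EGFP mRNA. Efficiency was expressed as percent GFP-expressing cells over Hoechst-defined total cell number.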

| SMILES | Absolute mRNA transfection efficiency in HEK293 cells [%] |
| --- | --- |
| CCCCCCCCCCCCCCCCSc1nc(NCCCCCC)nc(NCCN2CCN(C)CC2)n1 [Compound D5S16N6] | 63.2 |
| CCCCCCCCCCCCN(CCCCCCCCCCCC)c1nc(NCCN(C)C)nc(SCCCCCCCCC)n1 [D1S9^2N12] | 1.0 |
| CCCCCCCCCCCCCCCNc1nc(NCCCN2CCN(C)CC2)nc(SCCCCCCCCC)n1 [Compound D9S9N15] | 6.3 |
| CCCCCCCCCCCCCCCCSc1nc(NCCCCCCCCC)nc(NCCN(CC)CC)n1 [Compound D7S16N9] | 9.0 |
| CCCCCCCSc1nc(NCCCCCC)nc(NCCN2CCCC2)n1 [Compound D3S7N6] | 5.8 |
| CCCCCCCCCCCCCCCCSc1nc(NCCCCCCC)nc(NCCN2CCCC2)n1 [Compound D3S16N7] | 85.0 |
| CCCCCCCCCCCCNc1nc(NCCCN(C)C)nc(SCCCCCCCCCCCC)n1 [Compound D6S12N12] | 10.4 |
| CCCCCCCCCCSc1nc(NCCN(CC)CC)nc(SCCCCCC)n1 [Compound D7S6S10] | 2.7 |
| CCCCCCCCCCCCNc1nc(NCCCN2CCOCC2)nc(SCCCCCCC)n1 [Compound D8S7N12] | 2.3 |
| CCCCCCCCCCCCCCCCSc1nc(NCCCCCCC)nc(NCCCN(C)C)n1 [Compound D6S16N7] | 88.3 |
| CCCCCCCCCSc1nc(NCCCCCC)nc(NCCN2CCOCC2)n1 [Compound D2S9N6] | 0.5 |
| CCCCCCCCCCCCN(CCCCCCCCCCCC)c1nc(NCCN2CCCCC2)nc(SCCCCCCCCCCC)n1 [D4S11^2N12] | 0.5 |
| CCCCCCCCCCCCCCCNc1nc(NCCN(C)C)nc(SCCCCCCCC)n1 [Compound D1S8N15] | 23.8 |
| CCCCCCCCCCCCCCCNc1nc(NCCN(C)C)nc(SCCCCCCCCC)n1 [Compound D1S9N15] | 27.4 |
| CCCCCCCCCCCCCCCCCCNc1nc(NCCCN(C)C)nc(SCCCCCCCCC)n1 [Compound D6S9N18] | 44.8 |
| CCCCCCCCCCCCCCCSc1nc(NCCN(CC)CC)nc(SCCCCCCC)n1 [Compound D7S7S15] | 5.4 |
| CCCCCCCCCCCCN(CCCCCCCCCCCC)c1nc(NCCCN2CCN(C)CC2)nc(SCCCCCCC)n1 [D9S7^2N12] | 1.0 |
| CCCCCCCCCNc1nc(NCCCN2CCOCC2)nc(SCCCCCCCCC)n1 [Compound D8S9N9] | 14.0 |
| CCCCCCCCCCCCCCSc1nc(NCCCCCCCCCCCCC)nc(NCCN2CCCCC2)n1 [Compound D4S14N13] | 14.5 |
| CCCCCCCCCSc1nc(NCCN2CCCC2)nc(SCCCCCCCC)n1 [Compound D3S8S9] | 11.6 |
| CCCCCCCCCCCCSc1nc(NCCN(C)C)nc(SCCCCCCC)n1 [Compound D1S7S12] | 3.1 |
| CCCCCCCCCCCCCCSc1nc(NCCCCCCC)nc(NCCCN2CCN(C)CC2)n1 [Compound D9S14N7] | 50.1 |
| CCCCCCNc1nc(NCCCN(C)C)nc(SCCCCCC)n1 [Compound D6S6N6] | 0.0 |
| CCCCCCCCSc1nc(NCCCCCCC)nc(NCCCN2CCOCC2)n1 [Compound D8S8N7] | 0.1 |
| CCCCCCCCCCCSc1nc(NCCCCCCCCC)nc(NCCN(C)C)n1 [Compound D1S11N9] | 14.7 |

| SMILES | Absolute mRNA transfection efficiency in HEK293 cells [%] |
| --- | --- |
| CCCCCCCCCCCCCCCCCCNc1nc(NCCN2CCCC2)nc(SCCCCCCCCCC)n1 [Compound D3S10N18] | 59.6 |
| CCCCCCCCCNc1nc(NCCN2CCN(C)CC2)nc(SCCCCCCCC)n1 [Compound D5S8N9] | 11.2 |
| CCCCCCCCCSc1nc(NCCCCCC)nc(NCCCN2CCN(C)CC2)n1 [Compound D9S9N6] | 1.8 |
| CCCCCCCCCSc1nc(NCC2CCN(C)CC2)nc(SCCCCCCCC)n1 [Compound D10S8S9] | 37.6 |
| CCCCCCCCCCCCCCCCCCSc1nc(NCCCN(C)C)nc(SCCCCCC)n1 [Compound D6S6S18] | 83.3 |
| CCCCCCCCCCCCCCCCCCNc1nc(NCCN2CCCC2)nc(SCCCCCC)n1 [Compound D3S6N18] | 32.5 |
| CCCCCCCCCCCCCCCCSc1nc(NCCN2CCOCC2)nc(N(CCCCCCCCCCCC)CCCCCCCCCCCC)n1 [D2S16^2N12] | 0.7 |
| CCCCCCCCSc1nc(NCCCN(C)C)nc(SCCCCCCC)n1 [Compound D6S7S8] | 6.3 |
| CCCCCCCCCCCCCCCCSc1nc(NCCCCCCCCCCCC)nc(NCCCN2CCN(C)CC2)n1 [Compound D9S16N12] | 12.4 |
| CCCCCCCCNc1nc(NCCN2CCOCC2)nc(SCCCCCC)n1 [Compound D2S6N8] | 0.0 |
| CCCCCCCCCCCCCCCCNc1nc(NCCCN(C)C)nc(SCCCCCCCCCCCCCCCC)n1 [Compound D6S16N16] | 0.1 |
| CCCCCCCCCCCCSc1nc(NCCCCCC)nc(NCCCN2CCOCC2)n1 [Compound D8S12N6] | 0.9 |
| CCCCCCCCCCCCCCCCNc1nc(NCCN(CC)CC)nc(SCCCCCCC)n1 [Compound D7S7N16] | 12.8 |
| CCCCCCCCCCCCCCCCNc1nc(NCCN(CC)CC)nc(SCCCCCCCCC)n1 [Compound D7S9N16] | 10.9 |
| CCCCCCCCCCCCCCCCNc1nc(NCCCN2CCN(C)CC2)nc(SCCCCCCCCCCCC)n1 [Compound D9S12N16] | 1.2 |
| CCCCCCCCCNc1nc(NCC2CCN(C)CC2)nc(SCCCCCCCCC)n1 [Compound D10S9N9] | 70.0 |
| CCCCCCCCCCCCCCCCSc1nc(NCCCCCCCCC)nc(NCCN(C)C)n1 [Compound D1S16N9] | 26.4 |
| CCCCCCCCNc1nc(NCCCN2CCN(C)CC2)nc(SCCCCCCCC)n1 [Compound D9S8N8] | 4.5 |
| CCCCCCCCCSc1nc(NCCCCCC)nc(NCC2CCN(C)CC2)n1 [Compound D10S9N6] | 0.6 |
| CCCCCCCCCCCCSc1nc(NCCCCCCCC)nc(NCCN(C)C)n1 [Compound D1S12N8] | 11.3 |
| CCCCCCCCCCCCCCCNc1nc(NCCN(CC)CC)nc(SCCCCCCCCCCCCCCC)n1 [Compound D7S15N15] | 1.8 |
| CCCCCCCCCCCCCCCSc1nc(NCCCCCC)nc(NCCCN2CCN(C)CC2)n1 [Compound D9S15N6] | 30.7 |
| CCCCCCCCSc1nc(NCCCCCCC)nc(NCCN2CCOCC2)n1 [Compound D2S8N7] | 0.9 |
| CCCCCCCCNc1nc(NCC2CCN(C)CC2)nc(SCCCCCCCC)n1 [Compound D10S8N8] | 1.2 |
| CCCCCCCCCCCCCCCCSc1nc(NCCCN2CCOCC2)nc(N(CCCCCCCCCCCC)CCCCCCCCCCCC)n1 [D8S16^2N12] | 0.0 |
